Results from patent US20230212225A1, “PEPTIDE COMPOSTIONS AND METHODS FOR TREATING TAUOPATHIES” (AXOLTIS PHARMA, priority 2019, published 2023).
Where a SMILES comes first, the peptide text is derived from it.

Experiments:
Format in all cases: in vivo, mice
[1] = system: Aβ1-42 (amyloid-beta 1-42); experiment: Brain biomarker assessment, hippocampus ELISA, D11
Procedure: (§1) In order to evaluate potential biological effects of NX210 or NX218 treatments on pathological biomarkers, mice from the Sc.Aβ / Vhc (n=6), Aβ25-35 / Vhc (n=6), Aβ25-35 / NX210 IP 2 mg/kg (n=5) and Aβ25-35 / NX218 IP 2 mg/kg (n=5) groups were sacrificed under anesthesia ten days after ICV injection of Aβ25-35 peptide (D11) and daily compound administrations (once a day).
(§2) For each mouse, the brain was quickly removed and dissected out on an ice-cold metal plate into 2 hemi-hippocampi, 2 hemi-frontal cortices and the rest of brain. Straight after each collection, brain samples were frozen on dry ice and stored at -80° C. After thawing, brain structures were dissociated in 50 mM Tris-150 mM NaCl buffer, pH 7.5, and sonicated for 20 sec. After centrifugation, supernatants containing proteins were used for ELISA assays according to the manufacturer’s instructions (see below). • For Aβ1-42 (amyloid-beta 1-42), use of the left hippocampus, ELISA kit from Cloud-Clone Corp., ref: CEA946Mu; batch: L190107385 • For pTau (phosphorylated Tau protein), use of the left hippocampus, ELISA kit from Fisher Scientific, ref: 10591255; batch: 187860001
(§3) For all assays, the absorbance was read at 450 nm and each sample concentration was calculated by using a specific standard curve. All samples were run in duplicate and the average of these duplicates was used for calculations.

[2] = system: pTau (phosphorylated Tau protein); experiment: Brain biomarker assessment, hippocampus ELISA, D11
Procedure: as §1, §2, §3

[3] = system: Aβ25-35-induced short-term memory deficits; experiment: Late-stage efficacy: Y-maze with treatment started at D11
Procedure: Seven days after ICV injection of Aβ25-35 peptide (D08), all animals were tested for spontaneous alternation performance in the Y-maze, an index of spatial working memory (short-term memory test). Each mouse was placed at the end of one arm and allowed to move freely through the maze during an 8 min session. An alternation is defined as entries into all three arms on consecutive occasions. The number of maximum alternations is therefore the total number of arm entries minus two and the percentage of alternation is calculated as (actual alternations / maximum alternations) x 100. This parameter includes the percentage of alternation (memory index) (Maurice et al., 1996, 1998; Meunier et al., 2006).
The efficacy of NX210 and NX218 SCO-Spondin derived peptides was therefore assessed during this late-stage physiopathology setting. Specifically, the administrations of NX210, NX218 or vehicle were started at D11 and were repeated once a day until the end of the experiment.
All animals were tested for spontaneous alternation performance in the Y-maze, an index of short-term memory (see Example 3 for method details) from D08 (i.e. pre-treatment values) and then once a week for three weeks (D15, D22, D29).

[4] = system: Aβ25-35-induced long-term memory deficits; experiment: Step-through passive avoidance test (STPA), D09-D10
[5] = system: Aβ25-35-induced spatial working memory deficits; experiment: Place learning in the Morris water-maze (MWM), D09-D14; conditions: IP 2 mg/kg once a day
Procedure: The examples are using a model of Tauopathies. In this model, mice were injected intracerebroventricularly (ICV) at Day 01 (D01) with Aβ25-35 peptide (or with scrambled-Aβ peptide (Sc.Aβ) for Sham animals). This severe animal model recapitulates modulations of specific biomarkers (including deposits of brain Amyloid Beta1-42 and hyperphosphorylated Tau protein) involved in the physiopathology and the progression of human Tauopathies, as well as strong cognitive deficits (memory loss) as encountered by the patients (Maurice et al., 1996, 1998, 2013; Meunier et al., 2006).
After the Y-Maze and instead of performing the STPA test, some animals performed the Morris Water-Maze (MWM) test in order to assess spatial working memory deficits (a six-day test from D09 to D14). This gold-standard test consists in a circular pool filled with opaque water placed in a room with external cues (sink, contrasted posters, shelves). A platform is immersed under the water surface during acquisition. Training consists in 3 swims per day for 5 days, performed between D09 to D13, with a 20 min inter-trial time. Each mouse is allowed to swim for 90 sec in order to find the platform, and to stay on it for 20 sec.
A probe test (PT) is performed 24 h after the last swim on D14. For the PT, the platform is removed, and each animal is allowed to swim for 60 sec. The start position for each mouse corresponds to one of two positions remote from the platform location in a counterbalanced order. The platform quadrant is named ‘target’ and other quadrants (opposite, adjacent right and adjacent left) are named ‘other’ during the PT. The time spent in each quadrant is recorded. The results are expressed as the percentage of time spent in the target quadrant compared to the mean percentage of time spent in the three other quadrants.
Every day, the latencies to find the platform during the first (swim1), second (swim2), third (swim3), […] trials were monitored and averaged in this six-day experiment (Maurice et al., 2013).

[6] = 2 mg/kg once a day for ten days
[7] = IP 2 mg/kg once a day, left hippocampus, D11
[8] = D08, pre-treatment value, IP 2 mg/kg once a day started at D11
[9] = D15, IP 2 mg/kg once a day started at D11
[10] = D22, IP 2 mg/kg once a day started at D11
[11] = D29, IP 2 mg/kg once a day started at D11
[12] = IP 2 mg/kg every other day (1/2d)
[13] = IP 3.75 mg/kg every other day (1/2d)

N=C(N)NCCC[C@H](NC(=O)[C@H](CO)NC(=O)[C@H](CS)NC(=O)[C@H](CO)NC(=O)[C@H](CO)NC(=O)[C@H](Cc1c[nH]c2ccccc12)NC(=O)CNC(=O)[C@H](CO)NC(=O)[C@@H](N)Cc1c[nH]c2ccccc12)C(=O)N[C@@H](CO)C(=O)N[C@@H](CS)C(=O)NCC(=O)O [NX210, W-S-G-W-S-S-C-S-R-S-C-G] (H-WSGWSSCSRSCG-OH; N-terminus and C-terminus assumed)
effect on brain Aβ1-42 vs Aβ25-35 / Vhc group, in words [1, 6]: significantly decreased
Aβ1-42 %, percentage of the control group (Sc.Aβ / Vhc) [1, 7]: 107%
Aβ1-42 Mean [1, 7]: 24.25
effect on brain pTau vs Aβ25-35 / Vhc group, in words [2, 6]: significantly decreased
pTau %, percentage of the control group (Sc.Aβ / Vhc) [2, 7]: 151%
pTau Mean [2, 7]: 90.21
Y-maze (D08) % (Sc.Aβ / D11 vhc = 100) [3, 8]: 55%
Y-maze (D08) Mean, percentage of alternation [3, 8]: 39.17%
effect on short-term working memory deficits at D15, in words ([3]; D15, five daily administrations, 2 mg/kg started at D11): tendency to rescue
Y-maze (D15) % (Sc.Aβ / D11 vhc = 100) [3, 9]: 71%
Y-maze (D15) Mean, percentage of alternation [3, 9]: 55.55%
effect on working memory deficits at D22, in words ([3]; D22, 12 day-treatment, 2 mg/kg started at D11): significantly rescued
Y-maze (D22) % (Sc.Aβ / D11 vhc = 100) [3, 10]: 82%
Y-maze (D22) Mean, percentage of alternation [3, 10]: 60.08%
effect on memory deficits at D29, in words ([3]; D29, 19 day-treatment, 2 mg/kg started at D11): fully restored
Y-maze (D29) % (compared to Sham group) [3, 11]: 97%
Y-maze (D29) Mean, percentage of alternation [3, 11]: 74.73%
EL % (Sc.Aβ / Vhc = 100) ([4]; IP 0.1 mg/kg once a day): 449%
EL Mean, escape latency, retention session ([4]; IP 0.1 mg/kg once a day): 89.42 s
STL % (Sc.Aβ / Vhc = 100) ([4]; IP 0.1 mg/kg once a day): 42%
STL Mean, step-through latency, retention session ([4]; IP 0.1 mg/kg once a day): 118.92 s
EL % (Sc.Aβ / Vhc = 100) ([4]; IP 1 mg/kg once a day): 267%
EL Mean, escape latency, retention session ([4]; IP 1 mg/kg once a day): 53.08 s
STL % (Sc.Aβ / Vhc = 100) ([4]; IP 1 mg/kg once a day): 63%
STL Mean, step-through latency, retention session ([4]; IP 1 mg/kg once a day): 177.92 s
EL % (Sc.Aβ / Vhc = 100) [4, 12]: 110%
EL Mean, escape latency, retention session [4, 12]: 22.00 s
STL % (Sc.Aβ / Vhc = 100) [4, 12]: 93%
STL Mean, step-through latency, retention session [4, 12]: 263.33 s
EL % (Sc.Aβ / Vhc = 100) ([4]; IP 2 mg/kg once a day): 156%
EL Mean, escape latency, retention session ([4]; IP 2 mg/kg once a day): 31.17 s
STL % (Sc.Aβ / Vhc = 100) ([4]; IP 2 mg/kg once a day): 88%
STL Mean, step-through latency, retention session ([4]; IP 2 mg/kg once a day): 248.33 s
EL % (Sc.Aβ / Vhc = 100) [4, 13]: 119%
EL Mean, escape latency, retention session [4, 13]: 23.75 s
STL % (Sc.Aβ / Vhc = 100) [4, 13]: 94%
STL Mean, step-through latency, retention session [4, 13]: 264.75 s
EL % (Sc.Aβ / Vhc = 100) ([4]; IP 3.75 mg/kg once a day): 139%
EL Mean, escape latency, retention session ([4]; IP 3.75 mg/kg once a day): 27.67 s
STL % (Sc.Aβ / Vhc = 100) ([4]; IP 3.75 mg/kg once a day): 90%
STL Mean, step-through latency, retention session ([4]; IP 3.75 mg/kg once a day): 255.50 s
effect on contextual long-term memory deficits (STL and EL), in words ([4]; NX210 2 and 3.75 mg/kg, NX218 1, 2 and 3.75 mg/kg, once a day or every other day): fully rescued
effect on contextual long-term memory deficits (STL and EL) at subactive dose, in words ([4]; once a day, NX210 0.1 mg/kg, NX218 0.1 mg/kg, DPZ 0.25 mg/kg): do not impede
effect on learning profile and spatial memory deficits (MWM), in words [5]: significantly rescued
MWM - Probe test, mean percentage of time spent in the three other quadrants (Other) ([5]; D14): 20.30%
MWM - Learning profile, Mean time spent to find the platform (last block, heading missing) ([5]; fifth training day): 24.25 s
MWM - Learning profile - Day 1, Mean time spent to find the platform ([5]; training Day 1): 79.67 s
MWM - Learning profile - Day 2, Mean time spent to find the platform ([5]; training Day 2): 53.58 s
MWM - Learning profile - Day 3, Mean time spent to find the platform ([5]; training Day 3): 35.83 s
MWM - Learning profile - Day 4, Mean time spent to find the platform ([5]; training Day 4): 25.92 s
